Values quoted from earlier work, collected in patent publication US11230722B2, “Nutritional supplements and therapeutic compositions comprising (r)-3-hydroxybutyrate derivatives” (Oxford University Innovation Limited, priority 2003, dated 2022).

Tested on: gastric enzymes

absorption: only poorly absorbed | hydrolysis by gastric enzymes: not efficiently hydrolyzed
Structure (SMILES): C[C@@H]1CC(=O)O[C@H](C)CC(=O)O[C@H](C)CC(=O)O1 [triolide, cyclic trimer of (R)-3-hydroxybutyrate]
